Assays:
Format in all cases: biochemical
[1] = target: T1, baculovirus-expressed human trkA cytoplasmic domain (Homo sapiens, UniProt P04629); test: trkA tyrosine kinase inhibition assay (ELISA-based); conditions: 1 uM compound; 40 μM ATP
T1 construct: baculovirus-expressed human trkA cytoplasmic domain; host or cells: baculovirus expression system
Procedure: Inhibition of trkA Tyrosine Kinase Activity
Selected heterocyclic substituted pyrazolones were tested for their ability to inhibit the kinase activity of baculovirus-expressed human trkA cytoplasmic domain using an ELISA-based assay as previously described (Angeles et al., Anal. Biochem. 236: 49-55, 1996). Briefly, a 96-well microtiter plate was coated with substrate solution (recombinant human phospholipase C-γl/glutathione S-transferase fusion protein (Rotin et al., EMBO J., 11: 559-567, 1992). Inhibition studies were performed in 100 μl assay mixtures containing 50 mM Hepes, pH 7.4, 40 μM ATP, 10 mM MnCl2, 0.1% BSA, 2% DMSO, and various concentrations of inhibitor. The reaction was initiated by addition of trkA kinase and allowed to proceed for 15 minutes at 37° C. An antibody to phosphotyrosine (UBI) was then added, followed by a secondary enzyme-conjugated antibody, alkaline phosphatase-labelled goat anti-mouse IgG (Bio-Rad). The activity of the bound enzyme was measured via an amplified detection system (Gibco-BRL). Inhibition data were analyzed using the sigmoidal dose-response (variable slope) equation in GraphPad Prism.

[2] = target: T2, baculoviral GST-MLK3KD (Homo sapiens, UniProt Q16584); test: Mixed Lineage Kinase-3 inhibition assay (Millipore Multiscreen plate, 32P); conditions: 1 uM compound; 100 μM ATP
T2 construct: 2 μg/ml of baculoviral GST-MLK3KD; GST (N); host or cells: baculovirus expression system
T2 sequence (Q16584 117-379 limits assumed): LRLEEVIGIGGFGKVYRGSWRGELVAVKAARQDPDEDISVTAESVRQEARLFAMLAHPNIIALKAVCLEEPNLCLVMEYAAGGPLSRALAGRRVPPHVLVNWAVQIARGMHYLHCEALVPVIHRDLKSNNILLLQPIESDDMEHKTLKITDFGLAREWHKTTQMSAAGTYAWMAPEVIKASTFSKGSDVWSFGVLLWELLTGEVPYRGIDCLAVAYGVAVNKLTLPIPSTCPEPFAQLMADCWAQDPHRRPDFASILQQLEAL
Procedure: Inhibition of Mixed Lineage Kinase-3 Activity
Assays were performed using the Millipore Multiscreen plate format as described for MLK1. Briefly, each 50-μl assay mixture contained 20 mM Hepes, pH 7, 1 mM EGTA, 10 mM MgCl2, 1 mM DTT, 25 mM β-glycerophosphate, 100 μM ATP, 0.25 μCi [γ-^32P]ATP, 0.1% BSA, 500 μg/ml myelin basic protein (UBI #13-104), 2% DMSO, various concentrations of test compound, and 2 μg/ml of baculoviral GST-MLK3KD. Samples were incubated for 15 min at 37° C. The reaction was stopped by adding ice cold 50% TCA and the proteins were allowed to precipitate for 30 min at 4° C. The plates were then washed with ice cold 25% TCA. Supermix scintillation cocktail was added, and the plates were allowed to equilibrate for 1-2 hours prior to counting.

[3] = target: T3, recombinant human baculovirus-expressed FGFR1 cytoplasmic domain (Homo sapiens, UniProt P11362); test: FGFR1 kinase inhibition assay (ELISA-based, time-resolved fluorescence); conditions: 1 uM compound; 20 μM ATP
T3 construct: recombinant human baculovirus-expressed FGFR1 cytoplasmic domain; host or cells: baculovirus expression system
T3 sequence (P11362 398-822 limits assumed): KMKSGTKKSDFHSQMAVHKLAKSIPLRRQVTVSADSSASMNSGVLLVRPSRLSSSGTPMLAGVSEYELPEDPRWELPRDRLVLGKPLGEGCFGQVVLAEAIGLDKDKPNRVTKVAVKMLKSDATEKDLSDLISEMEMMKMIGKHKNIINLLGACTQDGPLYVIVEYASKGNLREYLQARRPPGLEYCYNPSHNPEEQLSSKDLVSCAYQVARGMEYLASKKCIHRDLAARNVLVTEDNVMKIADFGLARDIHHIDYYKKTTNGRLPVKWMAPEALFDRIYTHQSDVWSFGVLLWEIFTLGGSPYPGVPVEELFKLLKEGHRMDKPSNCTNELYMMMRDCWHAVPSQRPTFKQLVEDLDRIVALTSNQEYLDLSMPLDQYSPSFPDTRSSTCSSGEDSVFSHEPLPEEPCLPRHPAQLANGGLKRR
Procedure: Inhibition of Fibroblast Growth Factor Receptor-1 (FGFR1) Kinase Activity
The FGFR1 kinase activity was measured using an ELISA-based format in a 96-well FluoroNUNC Maxisorp plate with a time-resolved fluorescence readout as described for trkA kinase. The plate was coated with 100 μl/well of substrate solution (recombinant human PLC-γ/GST) at a concentration of 10 μg/ml in Tris buffered saline (TBS). The FDGFR1 activity was assayed in 100-μl assay micture containing 50 mM HEPES (pH 7.4), 20 μM ATP, 10 mM MnCl2, 0.1% BSA, 2% DMSO, and 15 ng/ml recombinant human baculovirus-expressed FGFR1 cytoplasmic domain (prephosphorylated prior to use). Compounds were screened for inhibition of the FGFR1 kinase activity at a conentration of 1 μM. The kinase reaction was allowed to proceed at 37° C. for 15 minutes. The detection antibody, europium-labeled anti-phosphotyrosine antibody (Wallace #CR04-100), was added at 1:5000 dilution in block buffer (3% BSA in TBST). After a 1-hour incubation at 37° C., 100 μl of enhancement solution (Wallac #1244-105) and the plate was gently agitated. After 5 min, the fluorescence of the resulting solutions measured using the BMG Fluostar (Model # 403).

[4] = target: T4, recombinant human baculovirus-expressed VEGFR1 cytoplasmic domain (Homo sapiens, UniProt P17948); test: VEGFR1 kinase inhibition assay (ELISA-based, time-resolved fluorescence); conditions: 1 uM compound; 30 μM ATP
T4 construct: recombinant human baculovirus-expressed VEGFR1 cytoplasmic domain; host or cells: baculovirus expression system
T4 sequence (P17948 781-1338 limits assumed): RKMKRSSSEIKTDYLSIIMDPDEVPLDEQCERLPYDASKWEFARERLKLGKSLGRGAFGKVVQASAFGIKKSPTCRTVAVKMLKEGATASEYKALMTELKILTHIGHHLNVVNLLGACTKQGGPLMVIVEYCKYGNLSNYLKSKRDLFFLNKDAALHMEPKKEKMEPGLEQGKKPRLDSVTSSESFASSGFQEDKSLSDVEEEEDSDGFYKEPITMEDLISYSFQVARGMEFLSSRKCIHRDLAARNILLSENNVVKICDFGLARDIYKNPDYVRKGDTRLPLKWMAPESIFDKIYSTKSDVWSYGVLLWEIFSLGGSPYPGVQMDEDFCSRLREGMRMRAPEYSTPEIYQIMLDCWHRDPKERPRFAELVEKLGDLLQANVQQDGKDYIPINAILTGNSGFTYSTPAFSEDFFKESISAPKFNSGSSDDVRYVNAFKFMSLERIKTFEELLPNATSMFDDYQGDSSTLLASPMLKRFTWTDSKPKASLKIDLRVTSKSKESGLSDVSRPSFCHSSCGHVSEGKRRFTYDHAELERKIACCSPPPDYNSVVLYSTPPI
Procedure: Inhibition of Vascular Endothelial Growth Factor Receptor-1 Kinase Activity
The VEGFR1 kinase activity assay utilizes an ELISA-based format in a 96-well FluoroNUNC Maxisorp plate with a time-resolved fluorescence readout. The plate was coated with 100 μl/well of substrate solution (recombinant human PLC-γ/GST) at a concentration of 40 μg/ml in Tris buffered saline (TBS). The VEGFR1 activity was assayed in 100-μl assay micture containing 50 mM HEPES (pH 7.4), 30 μM ATP, 10 mM MnCl2, 0.1% BSA, 2% DMSO, and 300 ng/ml prephosphorylated recombinant human baculovirus-expressed VEGFR1 cytoplasmic domain. Compounds were screened for inhibition of the VEGFR1 kinase activity at a concentration of 1 μM. The kinase reaction was allowed to proceed at 37° C. for 15 minutes. The detection antibody, europium-labeled anti-phosphotyrosine antibody (Wallac #CR04-100), was added at 1:5000 dilution in block buffer (3% BSA in TBST). After a 1-hour incubation at 37° C., 100 μl of enhancement solution (Wallac #1244-105) was added and the plate was gently agitated. After 5 min, the fluorescence of the resulting solution was measured using the BMG Fluostar (Model # 403).

T1 sequence (P04629 440-796 limits assumed): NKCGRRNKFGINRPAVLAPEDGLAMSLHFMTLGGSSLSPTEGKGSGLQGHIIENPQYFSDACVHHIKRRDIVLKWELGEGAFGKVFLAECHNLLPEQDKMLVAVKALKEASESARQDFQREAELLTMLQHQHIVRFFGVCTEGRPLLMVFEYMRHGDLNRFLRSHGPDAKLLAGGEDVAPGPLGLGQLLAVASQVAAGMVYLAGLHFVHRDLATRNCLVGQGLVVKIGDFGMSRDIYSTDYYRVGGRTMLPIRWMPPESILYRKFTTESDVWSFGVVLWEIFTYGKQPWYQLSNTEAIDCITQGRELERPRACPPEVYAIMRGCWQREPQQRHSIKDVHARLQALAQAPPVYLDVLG

SMILES | trkA % inhibition @ 1 uM [1] [%] | MLK-3 Kinase % inhibition @ 1 uM [2] [%] | FGFR1 % inhibition @ 1 uM [3] [%] | VEGFR-1 kinase % inhibition @ 1 uM [4] [%]
Cc1cc(C)c(C=C2C(=O)NN=C2c2ccoc2)[nH]1 [Compound 1] | 24 | 28 | 6 | 35
Cc1cc(C)c(C=C2C(=O)NN=C2C2c3ccccc3Oc3ccccc32)[nH]1 [Compound 2] | 39 | −11 | 33 | 9
Cc1cc(C)c(C=C2C(=O)NN=C2c2ccncc2)[nH]1 [Compound 3] | 60 | 12 | 29 | 22
O=C1NN=C(c2ccoc2)C1=CC=C(c1ccccc1)c1ccccc1 [Compound 4] | 53 | −6 | 20 | 20
CCc1c(C=C2C(=O)NN=C2c2ccoc2)[nH]c(C(=O)OCc2ccccc2)c1C [Compound 5] | 2 | −9 | −2 | 10
Cc1c(I)[nH]c(C=C2C(=O)NN=C2c2ccoc2)c1I [Compound 6] | 31 | 3 | 20 | 14
CCOC(=O)CCc1c(C(=O)OCC)[nH]c(C=C2C(=O)NN=C2c2ccoc2)c1CC(=O)OCC [Compound 7] | 33 | 7 | 28 | 13
Cc1[nH]c(C=C2C(=O)NN=C2c2ccoc2)c(Br)c1Br [Compound 8] | 20 | 10 | 24 | 21
O=C1NN=C(c2ccoc2)C1=Cc1c[nH]c2ccccc12 [Compound 9] | 41 | 27 | 17 | 51
Cc1cc(C)c(C=C2C(=O)NN=C2c2cccnc2)[nH]1 [Compound 10] | 26 | 44 | 14 | 41
COc1ccc2[nH]cc(C=C3C(=O)NN=C3c3ccoc3)c2c1 [Compound 11] | 65 | 31 | 24 | 23
O=C1NN=C(c2ccoc2)C1=Cc1ccc[nH]1 [Compound 12] | 44 | 29 | 39 | 29
Cc1nc(C)c(C2=NNC(=O)C2=Cc2c[nH]c3ccccc23)s1 [Compound 13] | 45 | 17 | 30 | 39
Cc1cc(C)c(C=C2C(=O)NN=C2c2sc(C)nc2C)[nH]1 [Compound 14] | 35 | 14 | 22 | 8
O=C1NN=C(c2ccoc2)C1=Cc1ncc[nH]1 [Compound 15] | 15 | −17 | 10 | 12
COC(=O)c1ccc2[nH]cc(C=C3C(=O)NN=C3c3ccoc3)c2c1 [Compound 16] | 29 | 12 | 1 | 18
O=C1NN=C(c2ccoc2)C1=Cc1c[nH]c2ccc(Cl)cc12 [Compound 17] | 52 | 19 | 13 | 17
O=C1NN=C(c2ccoc2)C1=Cc1c[nH]c2cccc(OCc3ccccc3)c12 [Compound 18] | 70 | 47 | 22 | 9
O=C1NN=C(c2ccoc2)C1=Cc1c[nH]c2ccc(F)cc12 [Compound 19] | 45 | 11 | 23 | 30
Cn1cc(C=C2C(=O)NN=C2c2ccoc2)c2ccccc21 [Compound 20] | 60 | 57 | 27 | 45
O=C1NN=C(c2ccoc2)C1=Cc1c[nH]c2ccc(OCc3ccccc3)cc12 [Compound 21] | 56 | 24 | 15 | 0
Cc1cccc2c(C=C3C(=O)NN=C3c3ccoc3)c[nH]c12 [Compound 22] | 44 | 24 | 22 | 23
Cc1cc(C)c(C=C2C(=O)NN=C2c2ccn(C)c2)[nH]1 [Compound 23] | 26 | 69 | 31 | 2
Cn1ccc(C2=NNC(=O)C2=Cc2c[nH]c3ccccc23)c1 [Compound 24] | 22 | 38 | 39 | 39
